Measured values taken from publication PMC6651613, “Identification and Characterization of trans-Isopentenyl Diphosphate Synthases Involved in Herbivory-Induced Volatile Terpene Formation in Populus trichocarpa” (Molecules, 2019).

Legend:
Test in all cases: LC-MS/MS product analysis
Format in all cases: biochemical
Conditions in all cases: 50 uM IPP and 50 uM DMAPP, 10 mM MgCl2, 0.1 mM MnCl2, pH 7.2, 30 °C, 1 h
[1] = target: T1, PtGPPS2.LSU (Populus trichocarpa, UniProt A0A514TNS4)
T1 construct: N-terminally truncated ORF (delta72, signal peptide removed), C-terminal His tag (pASK-IBA33+), E. coli TOP10, Ni-NTA purified; cloning primer encodes MPTFDFKSY

[2] = target: T2, PtFPPS1 (Populus trichocarpa, UniProt A0A514TNK7)
T2 construct: full-length ORF, N-terminal His tag (pASK-IBA37+), E. coli TOP10, Ni-NTA purified; cloning primer encodes MADLKSTF
T2 sequence (A0A514TNK7 1-342): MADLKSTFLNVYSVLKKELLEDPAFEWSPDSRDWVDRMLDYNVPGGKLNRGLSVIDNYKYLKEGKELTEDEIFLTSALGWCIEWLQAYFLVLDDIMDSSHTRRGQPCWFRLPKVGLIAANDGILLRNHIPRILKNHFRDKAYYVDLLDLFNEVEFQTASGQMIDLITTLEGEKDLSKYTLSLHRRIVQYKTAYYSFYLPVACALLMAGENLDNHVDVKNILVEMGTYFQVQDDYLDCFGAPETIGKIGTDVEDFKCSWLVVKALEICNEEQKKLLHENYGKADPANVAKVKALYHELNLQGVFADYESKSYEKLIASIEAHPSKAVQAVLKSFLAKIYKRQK

[3] = target: T3, PtGPPS2.LSU + PtGPPS.SSU1 (Populus trichocarpa, UniProt A0A514TNS4)
T3 construct: separately purified LSU (delta72) and SSU1 (delta41) mixed; C-terminal His tags, E. coli TOP10; heterodimer proposed, not isolated; with Geranyl diphosphate synthase small subunit 1

[4] = target: T4, PtGPPS1.LSU (Populus trichocarpa, UniProt A0A514TNQ6)
T4 construct: N-terminally truncated ORF (delta71, signal peptide removed), C-terminal His tag (pASK-IBA33+), E. coli TOP10, Ni-NTA purified; cloning primer encodes MPTFDFKSY

[5] = target: T5, PtGPPS1.LSU + PtGPPS.SSU1 (Populus trichocarpa, UniProt A0A514TNQ6)
T5 construct: equal amounts of separately purified LSU (delta71) and SSU1 (delta41) mixed; C-terminal His tags, E. coli TOP10; heterodimer proposed, not isolated; with Geranyl diphosphate synthase small subunit 1
T5 sequence (A0A514TNQ6 70-365): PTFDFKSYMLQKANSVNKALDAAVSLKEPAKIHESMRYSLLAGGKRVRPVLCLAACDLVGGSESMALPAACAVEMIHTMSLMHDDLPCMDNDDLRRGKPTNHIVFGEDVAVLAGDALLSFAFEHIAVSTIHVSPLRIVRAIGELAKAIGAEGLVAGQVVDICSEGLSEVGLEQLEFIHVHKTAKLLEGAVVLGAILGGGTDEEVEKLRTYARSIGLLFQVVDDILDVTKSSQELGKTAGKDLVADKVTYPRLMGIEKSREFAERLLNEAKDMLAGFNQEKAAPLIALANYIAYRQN
T5 sequence (A0A514TNK9 42-312 partner): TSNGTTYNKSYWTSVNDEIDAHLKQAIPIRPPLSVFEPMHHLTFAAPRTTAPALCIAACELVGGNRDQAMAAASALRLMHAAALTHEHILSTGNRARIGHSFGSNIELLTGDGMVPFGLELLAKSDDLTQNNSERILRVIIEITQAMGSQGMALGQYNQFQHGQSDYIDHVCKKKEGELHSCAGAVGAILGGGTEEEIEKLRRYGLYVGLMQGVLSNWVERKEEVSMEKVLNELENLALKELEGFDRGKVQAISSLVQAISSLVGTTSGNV

T3 sequence (A0A514TNS4 71-366): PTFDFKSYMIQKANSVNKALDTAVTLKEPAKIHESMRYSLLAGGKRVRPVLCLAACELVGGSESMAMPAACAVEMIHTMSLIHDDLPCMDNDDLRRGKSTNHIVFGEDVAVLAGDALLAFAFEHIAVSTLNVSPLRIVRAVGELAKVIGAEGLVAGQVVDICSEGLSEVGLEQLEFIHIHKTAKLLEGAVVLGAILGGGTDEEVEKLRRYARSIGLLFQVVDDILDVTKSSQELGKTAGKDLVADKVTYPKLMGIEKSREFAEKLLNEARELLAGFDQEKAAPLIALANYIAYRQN
T3 sequence (A0A514TNK9 42-312 partner): as the sequence (A0A514TNK9 42-312 partner) above
T1 sequence (A0A514TNS4 71-366): as the sequence (A0A514TNS4 71-366) above
T4 sequence (A0A514TNQ6 70-365): as the sequence (A0A514TNQ6 70-365) above

SMILES	LC-MS/MS product analysis [1]	LC-MS/MS product analysis [2]	LC-MS/MS product analysis [3]	LC-MS/MS product analysis [4]	LC-MS/MS product analysis [5]
C=C(C)CCOP(=O)(O)OP(=O)(O)O [IPP]	produced GPP and GGPP when tested with IPP and DMAPP as substrates	PtFPPS1 catalyzes the condensation of IPP and DMAPP to FPP and traces of GGPP	incubated with IPP and DMAPP either in the presence (black bars) or absence	produced GPP and GGPP when tested with IPP and DMAPP as substrates	incubated with IPP and DMAPP either in the presence (black bars) or absence
CC(C)=CCOP(=O)(O)OP(=O)(O)O [DMAPP]	produced GPP and GGPP when tested with IPP and DMAPP as substrates	PtFPPS1 catalyzes the condensation of IPP and DMAPP to FPP and traces of GGPP	incubated with IPP and DMAPP either in the presence (black bars) or absence	produced GPP and GGPP when tested with IPP and DMAPP as substrates	incubated with IPP and DMAPP either in the presence (black bars) or absence
